# According to patent US20060037085A1, “Animal model for fetal alcohol syndrome and methods of treatment” (priority 2004, published 2006):
# Several values for one entry are separate records, joined by “and”; a condition that tells them apart may be missing. Equal entries are not always repeated. Where two headings read alike, the source gives them in different places. Marks after values point to notes of the source that are not given here.
# What was measured:
# [1] = tested on: alcohol-induced ROS production; test: ROS measurement (hydrogen peroxide level in embryos); format: in vivo, Xenopus laevis; conditions: 0.6% alcohol, stage 13 to 22, harvested at stage 22
# Method: (A) Embryos were pretreated with or without vitamin C two hours before alcohol treatment (0.6%, 12 h, from stage 13 to 22). The embryos were harvested at stage 22 and the hydrogen peroxide level measured by the colorimetric quantitation of hydrogen peroxide method (total hydroperoxides), according to the protocols provided by the manufacturer (BIOXYTECH H202-560 kit, OXIS International, Inc., USA); (B) The NF-κB mediated transcriptional activity was measured using NF-κB luciferase reporter plasmid (pLuc-NF-κB) containing IL-6 promoter region with four repeats of NF-κB binding sites.
# ROS measurement. […] At the end of the experiment, embryos were harvested and total ROS content was determined by the calorimetric quantitation of hydrogen peroxide method (total hydroperoxides), following protocols provided by the manufacturer (BIOXYTECH H202-560 kit, OXIS International, Inc. USA).
# NF-κB = NF-κB reporter assay (pLuc-NF-κB) in whole embryos; format: in vivo, Xenopus laevis; conditions: 0.6% ethanol, recorded at stage 22
# Method: NF-κB reporter assay. NF-κB luciferase reporter plasmid (pLuc-NF-κB) containing IL-6 promoter region with four repeats of NF-κB binding sites was used to measure NF-κB-mediated transcriptional activity (Li, 1997). Embryos at the two-cell stage were injected with pLuc-NF-κB, treated as indicated in the text, harvested, and lysed at stage 22. Protein concentration was determined. The luciferase activities were measured and calculated as relative luciferase activity per mg of protein.
# In this embodiment, NF-κB activity was measured in the whole embryo by the reporter construct pLuc-NF-κB, which was injected into embryos at 2-cell stage.
# Xenopus laevis embryos [2] = conditions: for % body length of control / % width between eyes of control / N (normal) tadpoles / def (deformed) tadpoles: Xenopus laevis
# Method: Embryo collection and experimental conditions for Xenopus model. […] In each experiment, embryos at the 2-4 cell stage were collected from the dejellied embryos. […] Each group was then incubated in a plastic petri dish containing 10 ml of 30% MMR, with or without ethanol for 12 hours. Embryos were allowed to develop for approximately 48 hours at room temperature (22° C.), until the control group reached tadpole stage (stage 45). The conditions used for producing eye defects (Peng et al, 2004), delayed gut development (Peng), microencephaly (Peng et al), and growth retardation (Peng) are shown in detail in the attached references.
# (§1) Morphological measurements of microcephaly and growth retardation.
# In a specific embodiment, embryos are exposed to at least about 0.4%, 0.5%, 0.6%, 0.7%, 0.8%, 0.9% or 1% alcohol.
# Embryos were exposed to 0.6% ethanol at stage 9, 11, 13, 16, 18, 20, 23, 25 and 40 and were grown until the control “no ethanol” group reached tadpole stage. The morphology of the tadpoles was then examined (Table 2).
# To determine the minimum duration required to produce fetal deformations, embryos at stage 13 were exposed to 0.6% of alcohol for 1, 2, 4, 6, 12, 24, 36 or 48 hours.
# Sox17, Pax6 and VegT = test: Animal cap explant assay, RT-PCR of gut developmental genes; format: cell-based, Xenopus laevis; conditions: alcohol
# Text: Animal cap explant assay. […] Total RNA was extracted from animal caps or whole embryos using TRIZOL reagent (Invitrogen). The total RNA was reverse transcribed using the Superscript system (Invitrogen), and the first strand cDNA of the target gene amplified by PCR.
# [3] = tested on: Xenopus laevis tadpole brain; test: Histological analysis of brain injury (coronal brain sections of tadpoles); conditions: tadpoles treated with alcohol
# Text: Histological analysis of brain injury. Embryos were fixed in 2% paraformaldehyde, dehydrated, embedded in paraffin. The embryos were sectioned coronally through the head and stained with hematoxylin and eosin.
# The EF-1α transcript was detected as an internal control for equal RNA load.
# Xenopus laevis embryos [4] = tested on: Xenopus laevis embryos
# Method: as §1
# Vitamin C treatment. Embryos at stage 13 (initial neural plate stage) were collected and divided into groups, each containing 15-20 embryos and incubated in a plastic petri dish containing MMR medium as stated above. Vitamin C, having a concentration of 100 μM, was added either concomitantly, 2 hours before, or 2 hours after the initiation of a 12-hour alcohol exposure. The tadpoles were fixed and measurements were made as stated above.
# Xenopus laevis embryos [5] = tested on: Xenopus laevis embryos; remark: listed apart in the source
# Method: Midneurala stage embryos were kept in either the control 10% MSS medium or the same medium supplemented with 0.5% alcohol. The embryos were allowed to grow until the control embryos (no alcohol) reached the tadpole stage (stages 45-46). All the embryos were then fixed and their body length and gut morphologies were recorded.
# Embryos were injected with pCMS, pCMS-mtPRDX5, pCMS-cpPRDX5 or pCMS-Catalase expression plasmid, and then maintained in medium with or without 0.5% alcohol. When the tadpoles of control group reached stages 45-46, all the tadpoles were fixed and their gut developmental stages and body lengths were measured and used for the correlation studies. […] Embryos were injected with pCMS, pCMS-mtPRDX5, or pCMS-Catalase expression plasmid, and then treated with or without alcohol as indicated. The expression of the gut markers was determined by RT-PCR.
# We also examined the correlation between the stage of gut development and body length in each individual tadpole.
# Xenopus laevis embryos [6] = tested on: Xenopus laevis embryos; remark: listed apart in the source
# Method: Morphological measurements of microcephaly and growth retardation. The tadpoles were then fixed in 2% paraformaldehyde in 30% MMR, and their morphologies examined by light microscopy and photographs were taken at a fixed magnification for body length and head width measurements. The following criteria were recorded: (1) the number of normal/deformed/dead embryos; (2) length of the body measured between the tip of the jaw and the tip of the tail, and (3) width between the eyes measured at the widest level of that of the tadpoles.
# In each experiment, embryos at 2-cell stage were collected and microinjected with the expression plasmid for either catalase (pCMS-CAT), xPax6 (pCS2+xPax6) or xSox2 (pCS2+xSox2) into each of the two blastomeres. After reaching stage 13, the embryos were divided into groups, each consisting of 20 embryos, which were then incubated in 10 ml of 30% Modified Marc's Ringer (MMR) for 12 hours until stage 22 in the presence or absence of varied concentrations of alcohol as indicated. As alcohol is volatile, the experimental media were replaced with fresh media every 4 hours during the course of alcohol treatment to minimize fluctuations in the alcohol concentration. At stage 22, embryos were transferred to 10 ml of 30% MMR without alcohol and allowed to grow until the control group reached the tadpole stage (stage 40 or 45). The tadpoles were then fixed and examined. Each experiment was repeated at least once with reproducible results.
# The injected embryos were allowed to grow to stage 40, and their head size and body length were then compared to that of the control embryos injected with mock plasmid pCS2+ and without alcohol treatment. […] In a separate experiment, 100 pg pCS2+xSox2 or pCS2+ plasmid was injected into animal pole at two-cell stage embryos (n=50) and treated these embryos in 0.6% alcohol under the same conditions as described for Pax6.
# As H2O2 is the major ROS produced by fetal alcohol exposure (Ozer et al., 2000), whether eliminating alcohol-induced H2O2 production can prevent microcephaly was examined by the protective effect of catalase. Human catalase was overexpressed in Xenopus embryos by microinjecting the two-cell stage embryos with 100 pg of catalase expression plasmid pCMS-CAT, and then treating them with or without 0.6% alcohol from stage 13 to 22.
# [7] = 0.5% alcohol stage 13 to 22, uninjected
# [8] = 0.5% alcohol, pCMS vector-injected embryos
# [9] = pCMS-EGFP vector-injected embryos, 0.6% alcohol stage 13 to 22
compound,measurement,setting,value
"CCO [Ethanol, ethanol]",hydrogen peroxide level in the embryos,[1]; listed as alcohol,significantly augmented
same,hydrogen peroxide level in the embryos,[1]; listed as ethanol,significantly increased
same,NF-κB activity in the embryo (luciferase reporter),NF-κB,increased
same,dead,"Xenopus laevis embryos [2]; 0.3% ethanol from stage 11 until control reached stage 45, 15 embryos per group",2
same,dead,"Xenopus laevis embryos [2]; 0.4% ethanol from stage 11 until control reached stage 45, 15 embryos per group",1
same,dead,"Xenopus laevis embryos [2]; 0.5% ethanol from stage 11 until control reached stage 45, 15 embryos per group",2
same,"mortality, head and body sizes vs control","Xenopus laevis embryos [2]; 0.6% alcohol, 12-hour exposure, stage 13-22",increased mortality and marked reduction in head and body sizes
same,dead,"Xenopus laevis embryos [2]; 0.6% ethanol from stage 11 until control reached stage 45, 15 embryos per group",1
same,dead,"Xenopus laevis embryos [2]; 0.6% ethanol, initial exposure at Stage 11, until control reached tadpole stage",3
same,dead,"Xenopus laevis embryos [2]; 0.6% ethanol, initial exposure at Stage 13, until control reached tadpole stage",2
same,dead,"Xenopus laevis embryos [2]; 0.6% ethanol, initial exposure at Stage 16, until control reached tadpole stage",1
same,dead,"Xenopus laevis embryos [2]; 0.6% ethanol, initial exposure at Stage 18, until control reached tadpole stage",1
same,dead,"Xenopus laevis embryos [2]; 0.6% ethanol, initial exposure at Stage 20, until control reached tadpole stage",2
same,dead,"Xenopus laevis embryos [2]; 0.6% ethanol, initial exposure at Stage 23, until control reached tadpole stage",1
same,dead,"Xenopus laevis embryos [2]; 1.0% ethanol from stage 11 until control reached stage 45, 15 embryos per group",3
same,dead,"Xenopus laevis embryos [2]; 1.5% ethanol from stage 11 until control reached stage 45, 15 embryos per group",4
same,dead,"Xenopus laevis embryos [2]; 2.0% ethanol from stage 11 until control reached stage 45, 15 embryos per group",6
same,% body length of control,"Xenopus laevis embryos [2]; in vivo, 0.3 %",95 ± 54%
same,% width between eyes of control,"Xenopus laevis embryos [2]; in vivo, 0.3 %",84 ± 15%
same,N (normal) tadpoles,"Xenopus laevis embryos [2]; in vivo, 0.3 %",11
same,def (deformed) tadpoles,"Xenopus laevis embryos [2]; in vivo, 0.3 %",3
same,% body length of control,"Xenopus laevis embryos [2]; in vivo, 0.4 %",90 ± 41%
same,% width between eyes of control,"Xenopus laevis embryos [2]; in vivo, 0.4 %",81 ± 11 %
same,N (normal) tadpoles,"Xenopus laevis embryos [2]; in vivo, 0.4 %",10
same,def (deformed) tadpoles,"Xenopus laevis embryos [2]; in vivo, 0.4 %",4
same,% body length of control,"Xenopus laevis embryos [2]; in vivo, 0.5 %",85 ± 57 %
same,% width between eyes of control,"Xenopus laevis embryos [2]; in vivo, 0.5 %",75 ± 09 %
same,N (normal) tadpoles,"Xenopus laevis embryos [2]; in vivo, 0.5 %",7
same,def (deformed) tadpoles,"Xenopus laevis embryos [2]; in vivo, 0.5 %",6
same,% body length of control,"Xenopus laevis embryos [2]; in vivo, 0.6 %",74 ± 34 %
same,% width between eyes of control,"Xenopus laevis embryos [2]; in vivo, 0.6 %",70 ± 18 %
same,N (normal) tadpoles,"Xenopus laevis embryos [2]; in vivo, 0.6 %",5
same,def (deformed) tadpoles,"Xenopus laevis embryos [2]; in vivo, 0.6 %",9
same,% body length of control,"Xenopus laevis embryos [2]; in vivo, 1 %",70 ± 39 %
same,% width between eyes of control,"Xenopus laevis embryos [2]; in vivo, 1 %",69 ± 21 %
same,N (normal) tadpoles,"Xenopus laevis embryos [2]; in vivo, 1 %",2
same,def (deformed) tadpoles,"Xenopus laevis embryos [2]; in vivo, 1 %",10
same,% body length of control,"Xenopus laevis embryos [2]; in vivo, 1.5 %",67 ± 51 %
same,% width between eyes of control,"Xenopus laevis embryos [2]; in vivo, 1.5 %",67 ± 17 %
same,N (normal) tadpoles,"Xenopus laevis embryos [2]; in vivo, 1.5 %",1
same,def (deformed) tadpoles,"Xenopus laevis embryos [2]; in vivo, 1.5 %",10
same,% body length of control,"Xenopus laevis embryos [2]; in vivo, 2 %",65 ± 58 %
same,% width between eyes of control,"Xenopus laevis embryos [2]; in vivo, 2 %",67 ± 23 %
same,N (normal) tadpoles,"Xenopus laevis embryos [2]; in vivo, 2 %",0
same,def (deformed) tadpoles,"Xenopus laevis embryos [2]; in vivo, 2 %",9
same,effect on viability and morphology of the tadpoles,Xenopus laevis embryos [2]; in vivo,no significant effect in either the viability or the morphology of the tadpoles
same,teratogenic effect,Xenopus laevis embryos [2]; in vivo,resistant to the teratogenic effect of alcohol
same,mortality rate,Xenopus laevis embryos [2]; stage 40 tadpoles exposed to 0.6% alcohol,80%
same,"expression of Sox17, Pax6 and VegT","Sox17, Pax6 and VegT",suppressed the expression
same,size of the forebrain area vs control,[3],reduction in size of the forebrain area
same,dead,"Xenopus laevis embryos [4]; 0.6% EtOH for 12 hours from stage 13, 15 embryos",2
same,Alive,"Xenopus laevis embryos [4]; Xenopus laevis, in vivo, 12 h",13
same,Body length,"Xenopus laevis embryos [4]; Xenopus laevis, in vivo, 12 h",9.25 ± 010^b mm
same,Eye distance,"Xenopus laevis embryos [4]; Xenopus laevis, in vivo, 12 h",1.63 ± 005^b mm
same,Body length (% no alcohol control),Xenopus laevis embryos [5]; [7],87 ± 2.7 % no alcohol control
same,Number of embryos in gut developmental stage 43,Xenopus laevis embryos [5]; [7],8
same,Number of embryos in gut developmental stage 44,Xenopus laevis embryos [5]; [7],7
same,Number of embryos in gut developmental stage 45,Xenopus laevis embryos [5]; [7],2
same,Number of embryos in gut developmental stage 46,Xenopus laevis embryos [5]; [7],0
same,Number of embryos in gut developmental stage 42,"Xenopus laevis embryos [5]; 0.5% alcohol stage 13 to 22, uninjected, scored when controls reached stages 45-46",3
same,Body length (% no alcohol control),Xenopus laevis embryos [5]; [8],85 ± 3.1 % no alcohol control
same,Number of embryos in gut developmental stage 42,Xenopus laevis embryos [5]; [8],3
same,Number of embryos in gut developmental stage 43,Xenopus laevis embryos [5]; [8],7
same,Number of embryos in gut developmental stage 44,Xenopus laevis embryos [5]; [8],9
same,Number of embryos in gut developmental stage 45,Xenopus laevis embryos [5]; [8],1
same,Number of embryos in gut developmental stage 46,Xenopus laevis embryos [5]; [8],0
same,outcome of sustained alcohol exposure,Xenopus laevis embryos [5]; sustained exposure of alcohol from stage 13,caused the death of tadpoles at around stages 45-50
same,gut maturation (looping pattern of the tadpole gut),Xenopus laevis embryos [5]; transient 0.5% alcohol exposure between stages 13-22,significant delay in gut maturation
same,"gut morphology, alcohol-treated vs control groups","Xenopus laevis embryos [5]; transient alcohol exposure, gut examined at stage 60",no difference
same,alive (Total/alive),"Xenopus laevis embryos [6]; Xenopus laevis, in vivo, 12 h",40/32
same,Body length (% of control),Xenopus laevis embryos [6]; [9],84 % of control and 83.7 ± 10.1^a % of control
same,Distance between eyes (% of control),Xenopus laevis embryos [6]; [9],81 % of control and 81.3 ± 14^a % of control
same,frequency of noted microcephaly and growth retardation,"Xenopus laevis embryos [6]; pCS2+ (mock plasmid) injected group, 0.6% alcohol",52%
